Patent US8188284B2, “2-aminoquinolines” (Hoffman-La Roche Inc., priority 2008, dated 2012)
pKi: −log10 of the molar value. Like-named read-outs stand apart in the source and are kept apart here.

Molecular target: T1, recombinant human 5-HT5A receptor (Homo sapiens, UniProt P47898)
T1 construct: expressed in transfected cells; host or cells: HEK-EBNA (Human Embryonic Kidney-EBNA) cells, transient cDNA expression, membranes
Test: [3H]LSD radioligand binding assay
Settings: for Ki: [3H]LSD (approximately 1 nM), membranes from HEK-EBNA cells transiently expressing 5-HT5A receptors, Ki calculated from IC50 using the Cheng-Prussoff equation, read-out: Ki/nM 5-HT5A
Experimental: A [^3H]LSD radioligand binding assay was used to determine the affinity of the compounds for the recombinant human 5-HT5A receptor, in membranes from transiently (cDNA) expressed 5-HT5A receptors in Human Embryonic Kidney-EBNA (HEK-EBNA) cells. Assay buffer consisted of Tris (50 mM) buffer containing 1 mM EGTA, 10 mM MgCl2 (pH 7.4) and 10 μM pargyline. The binding assay was carried out in 96-well-plates in the presence of [^3H]LSD (approximately 1 nM), approximately 2 μg/well of membrane protein, and 0.5 mg of Ysi-poly-1-lysine SPA beads in a final volume of 200 μl of buffer. Non-specific binding was defined using methiothepin 2 μM. Compounds were tested at 10 concentrations. All assays were conducted in duplicate and repeated at least two times. Assay plates were incubated for 120 min at room temperature before centrifugation. Bound ligand was determined using a Packard Topcount scintillation counter. IC50 values were calculated using a non-linear curve fitting program and Ki values calculated using the Cheng-Prussoff equation.

T1 sequence (P47898 whole entry): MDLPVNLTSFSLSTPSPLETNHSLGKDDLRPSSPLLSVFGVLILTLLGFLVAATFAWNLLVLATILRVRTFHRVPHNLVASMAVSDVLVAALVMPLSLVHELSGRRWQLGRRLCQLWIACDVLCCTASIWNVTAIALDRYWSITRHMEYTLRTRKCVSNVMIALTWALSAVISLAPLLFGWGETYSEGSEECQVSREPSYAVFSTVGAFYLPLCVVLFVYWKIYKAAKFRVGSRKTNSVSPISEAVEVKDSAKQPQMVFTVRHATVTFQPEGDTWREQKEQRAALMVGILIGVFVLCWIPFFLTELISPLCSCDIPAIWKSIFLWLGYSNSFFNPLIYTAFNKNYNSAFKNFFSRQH

| SMILES | Ki | pKi |
| --- | --- | --- |
| COc1cccc2c1C(Nc1ccc3cc(NC(=O)Cn4ccnc4)ccc3n1)CC2 (racemic) [Example 100, rac-2-Imidazol-1-yl-N-[2-(7-methoxy-indan-1-ylamino)-quinolin-6-yl]-acetamide] | 21.2 nM | – |
| Fc1ccc2c(c1)CCC2Nc1ccc2cc(Nc3cccc(C(F)(F)F)n3)ccc2n1 (racemic) [Example 102, rac-N^2-(5-Fluoro-indan-1-yl)-N^6-(6-trifluoromethyl-pyridin-2-yl)-quinoline-2,6-diamine] | 19.1 nM | – |
| COc1cccc2c1C(Nc1ccc3cc(NC(=O)Cc4ccncc4)ccc3n1)CC2 (racemic) [Example 115, rac-N-[2-(7-Methoxy-indan-1-ylamino)-quinolin-6-yl]-2-pyridin-4-yl-acetamide] | 15 nM | – |
| COc1cccc(COc2ccc3nc(N[C@@H]4CCc5ccccc54)ccc3c2)c1 [Example 2, (R)-Indan-1-yl-[6-(3-methoxy-benzyloxy)-quinolin-2-yl]-amine] | 92.4 nM | – |
| c1ccc2c(c1)CC[C@H]2Nc1ccc2cc(NCCCn3ccnc3)ccc2n1 [Example 9, N^6-(3-Imidazol-1-yl-propyl)-N^2—(R)-indan-1-yl-quinoline-2,6-diamine] | 176 nM | – |
| c1ccc2c(c1)CC[C@H]2Nc1ccc2cc(NCc3ncc[nH]3)ccc2n1 [Example 12, N^6-(1H-Imidazol-2-ylmethyl)-N^2—(R)-indan-1-yl-quinoline-2,6-diamine] | 16.6 nM | – |
| O=S(=O)(Nc1ccc2nc(N[C@@H]3CCc4ccccc43)ccc2c1)c1ccc(F)cc1 [Example 14, 4-Fluoro-N-[2-((R)-indan-1-ylamino)-quinolin-6-yl]-benzenesulfonamide] | 36.4 nM | – |
| c1ccc2c(c1)CC[C@H]2Nc1ccc2cc(NCc3ccncc3)ccc2n1 [Example 15, N^2—(R)-Indan-1-yl-N^6-pyridin-4-ylmethyl-quinoline-2,6-diamine] | 33.7 nM | – |
| COc1cccc(NC(=O)Nc2ccc3nc(N[C@@H]4CCc5ccccc54)ccc3c2)c1 [Example 22, 1-[2-((R)-Indan-1-ylamino)-quinolin-6-yl]-3-(3-methoxy-phenyl)-urea] | 21.9 nM | – |
| COc1ccccc1NC(=O)Nc1ccc2nc(N[C@@H]3CCc4ccccc43)ccc2c1 [Example 23, 1-[2-((R)-Indan-1-ylamino)-quinolin-6-yl]-3-(2-methoxy-phenyl)-urea] | 25.6 nM | – |
| C[C@H](NC(=O)Nc1ccc2nc(N[C@@H]3CCc4ccccc43)ccc2c1)c1ccccc1 [Example 28, 1-[2-((R)-Indan-1-ylamino)-quinolin-6-yl]-3-((S)-1-phenyl-ethyl)-urea] | 36.7 nM | – |
| COc1ccc(CNC(=O)Nc2ccc3nc(N[C@@H]4CCc5ccccc54)ccc3c2)cc1 [Example 29, 1-[2-((R)-Indan-1-ylamino)-quinolin-6-yl]-3-(4-methoxy-benzyl)-urea] | 16.5 nM | – |
| O=C(Nc1ccc(Cl)nc1)Nc1ccc2nc(N[C@@H]3CCc4ccccc43)ccc2c1 [Example 31, 1-(6-Chloro-pyridin-3-yl)-3-[2-((R)-indan-1-ylamino)-quinolin-6-yl]-urea] | 16.4 nM | – |
| O=C(Nc1ccnc(Cl)c1)Nc1ccc2nc(N[C@@H]3CCc4ccccc43)ccc2c1 [Example 33, 1-(2-Chloro-pyridin-4-yl)-3-[2-((R)-indan-1-ylamino)-quinolin-6-yl]-urea] | 18.2 nM | – |
| CN(c1ccc(Cl)cc1)S(=O)(=O)Nc1ccc2nc(N[C@@H]3CCc4ccccc43)ccc2c1 [Example 40, N-(4-chlorophenyl)-N′-{2-[(1R)-2,3-dihydro-1H-inden-1-ylamino]quinolin-6-yl}-N-methylsulfamide] | 29.6 nM | – |
| CN(c1ccc(F)cc1)S(=O)(=O)Nc1ccc2nc(N[C@@H]3CCc4ccccc43)ccc2c1 [Example 41, N′-{2-[(1R)-2,3-dihydro-1H-inden-1-ylamino]quinolin-6-yl}-N-(4-fluorophenyl)-N-methylsulfamide] | 25.8 nM | – |
| Cc1noc(C)c1NC(=O)Nc1ccc2nc(N[C@@H]3CCc4ccccc43)ccc2c1 [Example 42, 1-(3,5-Dimethyl-isoxazol-4-yl)-3-[2-((R)-indan-1-ylamino)-quinolin-6-yl]-urea] | 25.8 nM | – |
| Cn1cncc1CNC(=O)Nc1ccc2nc(N[C@@H]3CCc4ccccc43)ccc2c1 [Example 45, 1-[2-((R)-Indan-1-ylamino)-quinolin-6-yl]-3-(3-methyl-3H-imidazol-4-ylmethyl)-urea] | 10.6 nM | – |
| COc1ccc(OC(=O)Nc2ccc3nc(N[C@@H]4CCc5ccccc54)ccc3c2)cc1 [Example 47, [2-((R)-Indan-1-ylamino)-quinolin-6-yl]-carbamic acid 4-methoxy-phenyl ester] | – | 7.70 |
| O=C(Nc1ccc2nc(N[C@@H]3CCc4ccccc43)ccc2c1)c1ccc(F)cc1 [Example 50, 4-Fluoro-N-[2-((R)-indan-1-ylamino)-quinolin-6-yl]-benzamide] | 72.5 nM | – |
| O=C(NCc1ccc2nc(N[C@@H]3CCc4ccccc43)ccc2c1)c1ccc(F)cc1 [Example 54, 4-Fluoro-N-[2-((R)-indan-1-ylamino)-quinolin-6-ylmethyl]-benzamide] | 141 nM | – |
| Cn1nccc1NC(=O)Nc1ccc2nc(N[C@@H]3CCc4ccccc43)ccc2c1 [Example 58, 1-[2-((R)-Indan-1-ylamino)-quinolin-6-yl]-3-(2-methyl-2H-pyrazol-3-yl)-urea] | 20.3 nM | – |
| c1ccc2c(c1)CC[C@H]2Nc1ccc2cc(-n3ccnc3)ccc2n1 [Example 61, (6-Imidazol-1-yl-quinolin-2-yl)-(R)-indan-1-yl-amine] | 422 nM | – |
| O=C(NC(=S)Nc1ccc2nc(N[C@@H]3CCc4ccccc43)ccc2c1)c1ccccc1 [Example 63, 1-Benzoyl-3-[2-((R)-indan-1-ylamino)-quinolin-6-yl]-thiourea] | 390 nM | – |
| Fc1ccc(CNCc2ccc3nc(N[C@@H]4CCc5ccccc54)ccc3c2)cc1 [Example 64, {6-[(4-Fluoro-benzylamino)-methyl]-quinolin-2-yl}-(R)-indan-1-yl-amine] | 348 nM | – |
| FC(F)(F)c1cccc(Nc2ccc3nc(N[C@@H]4CCc5ccccc54)ccc3c2)n1 [Example 80, N^2—(R)-Indan-1-yl-N^6-(6-trifluoromethyl-pyridin-2-yl)-quinoline-2,6-diamine] | 24.1 nM | – |

Continued by falling Ki, values first:

| Ki | SMILES | pKi |
| --- | --- | --- |
| 9.8 nM | c1cncc(CNc2ccc3nc(N[C@@H]4CCc5ccccc54)ccc3c2)c1 [Example 4, N^2—(R)-Indan-1-yl-N^6-pyridin-3-ylmethyl-quinoline-2,6-diamine] | – |
| 9.8 nM | C[C@@H](NC(=O)Nc1ccc2nc(N[C@@H]3CCc4ccccc43)ccc2c1)c1ccccc1 [Example 27, 1-[2-((R)-Indan-1-ylamino)-quinolin-6-yl]-3-((R)-1-phenyl-ethyl)-urea] | – |
| 9.4 nM | c1ccc2c(c1)CC[C@H]2Nc1ccc2cc(NCc3cccc4[nH]ccc34)ccc2n1 [Example 11, N^2—(R)-Indan-1-yl-N^6-(1-H-indol-4-ylmethyl)-quinoline-2,6-diamine] | – |
| 9 nM | c1ccc2c(c1)CC[C@H]2Nc1ccc2cc(NCc3cc[nH]n3)ccc2n1 [Example 18, N^2—(R)-Indan-1-yl-N^6-(1-H-pyrazol-3-ylmethyl)-quinoline-2,6-diamine] | – |
| 8 nM | COc1cccc2c1C(Nc1ccc3cc(Nc4cccc(C)n4)ccc3n1)CO2 (racemic) [Example 112, rac-N^2-(4-Methoxy-2,3-dihydro-benzofuran-3-yl)-N^6-(6-methyl-pyridin-2-yl)-quinoline-2,6-diamine] | – |
| 7.8 nM | O=C(Nc1cccc(F)c1)Nc1ccc2nc(N[C@@H]3CCc4ccccc43)ccc2c1 [Example 20, 1-(3-Fluoro-phenyl)-3-[2-((R)-indan-1-ylamino)-quinolin-6-yl]-urea] | – |
| 7.6 nM | c1ccc2c(c1)CC[C@H]2Nc1ccc2cc(NCc3nccs3)ccc2n1 [Example 13, N^2—(R)-Indan-1-yl-N^6-thiazol-2-ylmethyl-quinoline-2,6-diamine] | – |
| 7.6 nM | Cc1nc[nH]c1CNc1ccc2nc(N[C@@H]3CCc4ccccc43)ccc2c1 [Example 17, N^2—(R)-Indan-1-yl-N^6-(5-methyl-3-H-imidazol-4-ylmethyl)-quinoline-2,6-diamine] | – |
| 6.8 nM | Cc1cccc(Nc2ccc3nc(NC4CCc5cc(F)ccc54)ccc3c2)n1 (racemic) [Example 105, rac-N^2-(5-Fluoro-indan-1-yl)-N^6-(6-methyl-pyridin-2-yl)-quinoline-2,6-diamine] | – |
| 6.5 nM | O=C(Nc1ccc(F)cc1)Nc1ccc2nc(N[C@@H]3CCc4ccccc43)ccc2c1 [Example 19, 1-(4-Fluoro-phenyl)-3-[2-((R)-indan-1-ylamino)-quinolin-6-yl]-urea] | – |
| 6.3 nM | COc1ccc(NC(=O)Nc2ccc3nc(N[C@@H]4CCc5ccccc54)ccc3c2)cc1 [Example 21, 1-[2-((R)-Indan-1-ylamino)-quinolin-6-yl]-3-(4-methoxy-phenyl)-urea] | – |
| 4.9 nM | O=C(Nc1ccccc1)Nc1ccc2nc(N[C@@H]3CCc4ccccc43)ccc2c1 [Example 16, 1-[2-((R)-Indan-1-ylamino)-quinolin-6-yl]-3-phenyl-urea] | – |
| 4.2 nM | O=C(Nc1ccc2nc(N[C@@H]3CCc4ccccc43)ccc2c1)Nc1ccccc1F [Example 25, 1-(2-Fluoro-phenyl)-3-[2-((R)-indan-1-ylamino)-quinolin-6-yl]-urea] | – |
| 3.4 nM | COc1cccc2c1C(Nc1ccc3cc(Nc4cccc(C)n4)ccc3n1)CC2 (racemic) [Example 94, rac-N^2-(7-Methoxy-indan-1-yl)-N^6-(6-methyl-pyridin-2-yl)-quinoline-2,6-diamine] | – |
